From patent publication US12662479B2 (Foghorn Therapeutics Inc., priority 2020, dated 2026) come the findings set out here.

The target of one experiment is T1, HiBit-BRM fusion protein (Homo sapiens, UniProt P51531).
T1 construct: expressed in transfected cells
As to the kind of experiment: HiBiT-BRM cell-based degradation assay (Nano-Glo HiBiT Lytic Detection, 24 h). The conditions noted are these: HeLa cells expressing HiBiT-BRM; for DC50: read-out: BRM HiBit Degradation IC50; for BRM HiBit Degradation Maximum measured: top dose 30 μM. A digest of the protocol: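 Percent BRM loss was derived from HiBiT luminescence relative to DMSO-treated cells and cells given 2 μM of a known BRM/BRG1 degrader. Treatment lasted 24 h in HiBiT-BRM HeLa cells, with a top final concentration of 30 μM.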

Experiment [1] addresses T2, HiBit-BRG1 fusion protein (Homo sapiens, UniProt P51532).
T2 construct: expressed in transfected cells
As to the kind of experiment: HiBiT-BRG1 cell-based degradation assay (Nano-Glo HiBiT Lytic Detection, 24 h). To be noted: HeLa cells expressing HiBit-BRG1 and LgBit; for DC50: read-out: BRG1 HiBit Degradation IC50; for Dmax: HeLa, top dose 30 μM, read-out: BRG1 HiBit Degradation Maximum measured. A digest of the protocol:
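Degradation is scaled from DMSO-treated cells (0%) to cells given 2 μM of a known BRM/BRG1 degrader (100%). HeLa cells stably carrying HiBiT-BRG1 plus LgBiT (5000/well) were lysed with Nano-Glo HiBiT detection reagent, shaken 10 min at RT, and luminescence read.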
In general terms: HiBiT is a short tag that completes a luciferase, so light tracks the accessible tagged protein.

T1 sequence (P51531 whole entry, the tested form may be a part): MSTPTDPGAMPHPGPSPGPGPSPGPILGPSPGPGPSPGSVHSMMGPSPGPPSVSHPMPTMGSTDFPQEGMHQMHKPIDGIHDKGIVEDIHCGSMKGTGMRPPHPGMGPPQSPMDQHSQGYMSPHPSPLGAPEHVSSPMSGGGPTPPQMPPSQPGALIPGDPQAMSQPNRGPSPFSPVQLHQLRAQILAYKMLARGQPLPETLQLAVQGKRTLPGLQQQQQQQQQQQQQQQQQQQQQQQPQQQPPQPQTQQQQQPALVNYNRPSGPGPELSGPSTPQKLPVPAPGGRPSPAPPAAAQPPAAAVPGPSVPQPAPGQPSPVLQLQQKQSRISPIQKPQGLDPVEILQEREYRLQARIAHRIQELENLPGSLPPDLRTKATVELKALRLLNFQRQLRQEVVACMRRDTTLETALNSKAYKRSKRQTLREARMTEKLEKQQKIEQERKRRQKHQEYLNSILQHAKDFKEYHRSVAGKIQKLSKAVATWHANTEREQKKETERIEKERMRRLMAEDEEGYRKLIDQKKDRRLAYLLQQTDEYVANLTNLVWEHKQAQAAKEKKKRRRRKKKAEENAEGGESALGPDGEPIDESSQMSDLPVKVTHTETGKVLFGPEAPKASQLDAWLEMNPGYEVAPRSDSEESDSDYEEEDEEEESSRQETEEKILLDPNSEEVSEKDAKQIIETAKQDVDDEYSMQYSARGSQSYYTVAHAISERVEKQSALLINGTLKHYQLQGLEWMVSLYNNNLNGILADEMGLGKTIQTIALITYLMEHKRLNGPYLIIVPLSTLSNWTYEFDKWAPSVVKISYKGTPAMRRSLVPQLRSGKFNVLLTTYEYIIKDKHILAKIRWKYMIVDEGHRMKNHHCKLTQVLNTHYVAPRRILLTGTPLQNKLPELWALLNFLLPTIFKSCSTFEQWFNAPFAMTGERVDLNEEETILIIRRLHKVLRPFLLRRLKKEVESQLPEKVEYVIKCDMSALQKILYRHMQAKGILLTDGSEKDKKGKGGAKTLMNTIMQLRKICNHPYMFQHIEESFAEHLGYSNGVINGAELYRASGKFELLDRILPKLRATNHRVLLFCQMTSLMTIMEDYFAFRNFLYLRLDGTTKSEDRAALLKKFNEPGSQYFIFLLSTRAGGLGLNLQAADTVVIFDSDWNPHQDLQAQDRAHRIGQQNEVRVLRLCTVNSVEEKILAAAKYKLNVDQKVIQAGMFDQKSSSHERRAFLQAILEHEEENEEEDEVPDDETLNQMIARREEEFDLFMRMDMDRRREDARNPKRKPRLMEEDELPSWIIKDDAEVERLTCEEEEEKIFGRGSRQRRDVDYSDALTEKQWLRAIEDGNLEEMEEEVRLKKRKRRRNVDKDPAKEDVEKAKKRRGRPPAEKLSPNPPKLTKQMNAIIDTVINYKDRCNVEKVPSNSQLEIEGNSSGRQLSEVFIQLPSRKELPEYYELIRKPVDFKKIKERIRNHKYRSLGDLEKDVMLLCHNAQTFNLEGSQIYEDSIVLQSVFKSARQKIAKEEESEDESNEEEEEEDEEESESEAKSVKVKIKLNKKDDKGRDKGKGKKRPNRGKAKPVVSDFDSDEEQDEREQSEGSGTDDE
T2 sequence (P51532 whole entry, the tested form may be a part): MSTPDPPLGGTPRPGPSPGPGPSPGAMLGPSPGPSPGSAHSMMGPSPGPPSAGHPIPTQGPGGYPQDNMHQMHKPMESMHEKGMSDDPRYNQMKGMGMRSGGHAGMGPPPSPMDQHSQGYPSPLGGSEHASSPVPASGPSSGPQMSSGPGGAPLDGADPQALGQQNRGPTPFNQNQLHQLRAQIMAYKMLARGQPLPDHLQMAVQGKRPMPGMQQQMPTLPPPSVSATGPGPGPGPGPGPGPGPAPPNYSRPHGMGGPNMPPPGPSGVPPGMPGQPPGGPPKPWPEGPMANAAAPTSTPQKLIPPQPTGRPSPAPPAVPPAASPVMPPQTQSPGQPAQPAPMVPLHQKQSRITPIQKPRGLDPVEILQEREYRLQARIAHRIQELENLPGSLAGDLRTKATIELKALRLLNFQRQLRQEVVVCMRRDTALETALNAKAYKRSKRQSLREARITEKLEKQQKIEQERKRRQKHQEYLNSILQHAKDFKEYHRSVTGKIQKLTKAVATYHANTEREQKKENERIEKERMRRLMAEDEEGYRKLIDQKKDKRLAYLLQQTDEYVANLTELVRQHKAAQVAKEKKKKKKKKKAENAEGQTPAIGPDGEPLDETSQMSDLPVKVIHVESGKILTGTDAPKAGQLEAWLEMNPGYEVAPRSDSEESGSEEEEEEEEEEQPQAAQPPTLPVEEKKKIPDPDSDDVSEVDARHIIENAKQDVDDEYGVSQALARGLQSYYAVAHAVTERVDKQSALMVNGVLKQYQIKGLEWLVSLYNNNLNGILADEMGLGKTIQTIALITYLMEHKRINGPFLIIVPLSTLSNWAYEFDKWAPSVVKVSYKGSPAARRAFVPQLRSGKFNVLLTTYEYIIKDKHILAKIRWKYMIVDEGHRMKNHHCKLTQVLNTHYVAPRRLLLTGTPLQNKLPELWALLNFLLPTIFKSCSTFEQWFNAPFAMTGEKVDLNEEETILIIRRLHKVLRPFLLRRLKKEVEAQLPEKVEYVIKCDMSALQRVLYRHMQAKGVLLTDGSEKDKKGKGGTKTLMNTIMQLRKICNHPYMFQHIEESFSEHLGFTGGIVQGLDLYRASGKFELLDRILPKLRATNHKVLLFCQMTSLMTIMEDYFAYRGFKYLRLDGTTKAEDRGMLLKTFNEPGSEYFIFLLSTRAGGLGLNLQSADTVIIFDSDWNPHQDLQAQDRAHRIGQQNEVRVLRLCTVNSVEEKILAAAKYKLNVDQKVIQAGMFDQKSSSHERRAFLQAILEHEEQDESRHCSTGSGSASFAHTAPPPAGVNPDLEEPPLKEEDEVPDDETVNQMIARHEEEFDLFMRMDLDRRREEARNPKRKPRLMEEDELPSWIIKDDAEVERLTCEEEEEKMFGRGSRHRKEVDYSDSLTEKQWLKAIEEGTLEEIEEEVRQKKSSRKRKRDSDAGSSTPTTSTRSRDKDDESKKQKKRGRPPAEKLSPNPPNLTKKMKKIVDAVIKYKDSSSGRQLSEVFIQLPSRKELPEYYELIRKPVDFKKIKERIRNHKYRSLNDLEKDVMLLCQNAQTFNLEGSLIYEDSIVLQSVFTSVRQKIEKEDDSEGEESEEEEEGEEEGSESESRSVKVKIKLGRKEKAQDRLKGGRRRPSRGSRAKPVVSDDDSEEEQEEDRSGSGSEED

Consider `Cc1ncsc1-c1ccc(CNC(=O)[C@H]2C[C@@H](O)CN2C(=O)[C@@H](NC(=O)COCCOCCOCCNC(=O)CCCOCC[C@H](NC(=O)c2ccn(S(C)(=O)=O)c2)C(=O)Nc2nc(-c3ccccc3)cs2)C(C)(C)C)cc1` [Compound 250, (2R,4R)-4-hydroxy-1-[(2S)-2-(2-[2-[2-(2-[4-[(3S)-3-[(1-methanesulfonylpyrrol-3-yl)formamido]-3-[(4-phenyl-1,3-thiazol-2-yl)carbamoyl]propoxy]butanamido]ethoxy)ethoxy]ethoxy]acetamido)-3,3-dimethylbutanoyl]-N-[[4-(4-methyl-1,3-thiazol-5-yl)phenyl]methyl]pyrrolidine-2-carboxamide], for which, on HiBit-BRM fusion protein, the DC50 is more than 10 µM and the “BRM HiBit Degradation Maximum measured” value is “C (‘C’ = Maximum degradation <50%)”. In addition, in experiment [1], the DC50 is more than 10 µM and the Dmax is less than 50%.
As for `CS(=O)(=O)n1ccc(C(=O)N[C@@H](COCCCC(=O)NCCCCCCNc2ccc3c(c2)C(=O)N(C2CCC(=O)NC2=O)C3=O)C(=O)Nc2nc(-c3ccccc3)cs2)c1` (stereo partly drawn) [Compound 230, N-(6-[[2-(2,6-dioxopiperidin-3-yl)-1,3-dioxoisoindol-5-yl]amino]hexyl)-4-[(2S)-2-[(1-methanesulfonylpyrrol-3-yl)formamido]-2-[(4-phenyl-1,3-thiazol-2-yl)carbamoyl]ethoxy]butanamide], at HiBit-BRM fusion protein, the DC50 is more than 10 µM and the “BRM HiBit Degradation Maximum measured” value is listed as “C (‘C’ = Maximum degradation <50%)”. Moreover, in experiment [1], the DC50 is more than 10 µM and the Dmax was less than 50%.
Turning to `CS(=O)(=O)n1ccc(C(=O)N[C@@H](COCc2ccc(C(=O)N3CCN(CC4CN(c5ccc6c(c5)C(=O)N(C5CCC(=O)NC5=O)C6=O)C4)CC3)cc2)C(=O)Nc2nc(-c3ccccc3)cs2)c1.O=CO` (stereo partly drawn) [Compound 231, (2S)-3-([4-[4-([1-[2-(2,6-dioxopiperidin-3-yl)-1,3-dioxoisoindol-5-yl]azetidin-3-yl]methyl)piperazine-1-carbonyl]phenyl]methoxy)-2-[(1-methanesulfonylpyrrol-3-yl)formamido]-N-(4-phenyl-1,3-thiazol-2-yl)propanamide; formic acid], on HiBit-BRM fusion protein, the DC50 is more than 10 µM and the “BRM HiBit Degradation Maximum measured” value is on record as “C (‘C’ = Maximum degradation <50%)”. In experiment [1], the DC50 is more than 10 µM and the Dmax is less than 50%.
As to `CN(CCOCCOCCNc1cccc2c1C(=O)N(C1CCC(=O)NC1=O)C2=O)C(=O)CN(C)c1cc(-c2cccc(-c3csc(NC(=O)CNC(=O)c4ccn(S(C)(=O)=O)c4)n3)c2)ccn1` (centres unmarked) [Compound 84], on HiBit-BRM fusion protein, the DC50 was more than 10 µM and the “BRM HiBit Degradation Maximum measured” value is “C (‘C’ = Maximum degradation <50%)”. Also, in experiment [1], the DC50 was more than 10 µM and the Dmax is less than 50%.
As for `Cc1cc(C(=O)NCC(=O)Nc2nc(-c3cccc(-c4ccnc(N(C)CC(=O)NCCOCCOCCNc5cccc6c5C(=O)N(C5CCC(=O)NC5=O)C6=O)c4)c3)cs2)cn1S(C)(=O)=O` (centres unmarked) [Compound 122, N-(2-((4-(3-(2-((2-((2-(2-(2-((2-(2,6-dioxopiperidin-3-yl)-1,3-dioxoisoindolin-4-yl)amino)ethoxy)ethoxy)ethyl)amino)-2-oxoethyl)(methyl)amino)pyridin-4-yl)phenyl)thiazol-2-yl)amino)-2-oxoethyl)-5-methyl-1-(methylsulfonyl)-1H-pyrrole-3-carboxamide], on HiBit-BRM fusion protein, the DC50 was more than 10 µM and the “BRM HiBit Degradation Maximum measured” value was “C (‘C’ = Maximum degradation <50%)”. In experiment [1], the DC50 is more than 10 µM and the Dmax was less than 50%.
In the case of `CS(=O)(=O)n1ccc(C(=O)NCC(=O)Nc2nc(-c3cccc(-c4ccnc(C5(C(=O)NCCOc6ccc7c(c6)C(=O)N(C6CCC(=O)NC6=O)C7=O)CC5)c4)c3)cs2)c1` (centres unmarked) [Compound 161], on HiBit-BRM fusion protein, the DC50 lay in the range of 0.1 to 1 µM; the “BRM HiBit Degradation Maximum measured” value is “B (‘B’ = Maximum degradation ≥50% and ≤75%)”. Further, in experiment [1], the DC50 was in the range of 0.1 to 1 µM and the Dmax is more than 75%.
For `CS(=O)(=O)n1ccc(C(=O)N[C@@H](COCc2ccc(CNC(=O)CCCCCCCOc3cccc4c3C(=O)N(C3CCC(=O)NC3=O)C4=O)cc2)C(=O)Nc2nc(-c3ccccc3)cs2)c1` (stereo partly drawn) [Compound 213, 8-[[2-(2,6-dioxopiperidin-3-yl)-1,3-dioxoisoindol-4-yl]oxy]-N-[(4-[[(2S)-2-[(1-methanesulfonylpyrrol-3-yl)formamido]-2-[(4-phenyl-1,3-thiazol-2-yl)carbamoyl]ethoxy]methyl]phenyl)methyl]octanamide], on HiBit-BRM fusion protein, the DC50 lay in the range of 0.1 to 1 µM; the “BRM HiBit Degradation Maximum measured” value is “B (‘B’ = Maximum degradation ≥50% and ≤75%)”. In experiment [1], the DC50 was 0.1 to 1 µM and the Dmax lay within 50 to 75%.
With `CN(CC(=O)NCCCCCNc1ccc2c(c1)C(=O)N(C1CCC(=O)NC1=O)C2=O)c1cc(-c2cccc(-c3csc(NC(=O)CNC(=O)c4ccn(S(C)(=O)=O)c4)n3)c2)ccn1` (centres unmarked) [Compound 60], at HiBit-BRM fusion protein, the DC50 was more than 10 µM and the “BRM HiBit Degradation Maximum measured” value is “C (‘C’ = Maximum degradation <50%)”. Also, in experiment [1], the DC50 is more than 10 µM and the Dmax is less than 50%.
With `CS(=O)(=O)n1ccc(C(=O)NCC(=O)Nc2nc(-c3cccc(-c4cccc(CNC(=O)CCCCCCOc5cccc6c5C(=O)N(C5CCC(=O)NC5=O)C6=O)c4)c3)cs2)c1` (centres unmarked) [Compound 43, N-(2-((4-(3′-((7-((2-(2,6-dioxopiperidin-3-yl)-1,3-dioxoisoindolin-4-yl)oxy)heptanamido)methyl)-[1,1′-biphenyl]-3-yl)thiazol-2-yl)amino)-2-oxoethyl)-1-(methylsulfonyl)-1H-pyrrole-3-carboxamide], at HiBit-BRM fusion protein, the DC50 is more than 10 µM and the “BRM HiBit Degradation Maximum measured” value is “C (‘C’ = Maximum degradation <50%)”. In addition, in experiment [1], the DC50 lay within 0.1 to 1 µM and the Dmax was in the range of 50 to 75%.
Regarding `CN(CCNC(=O)c1ccc(COCC(NC(=O)c2ccn(S(C)(=O)=O)c2)C(=O)Nc2nc(-c3ccccc3)cs2)cc1)CCNc1cccc2c1C(=O)N(C1CCC(=O)NC1=O)C2=O` [Compound 244, (N-[2-[(2-[[2-(2,6-dioxopiperidin-3-yl)-1,3-dioxoisoindol-4-yl]amino]ethyl)(methyl)amino]ethyl]-4-[[(2S)-2-[(1-methanesulfonylpyrrol-3-yl)formamido]-2-[(4-phenyl-1,3-thiazol-2-yl)carbamoyl]ethoxy]methyl]benzamide], at HiBit-BRM fusion protein, the DC50 was more than 10 µM and the “BRM HiBit Degradation Maximum measured” value is reported as “C (‘C’ = Maximum degradation <50%)”. In addition, in experiment [1], the DC50 was more than 10 µM and the Dmax was less than 50%.
For `Cc1ncsc1-c1ccc(CNC(=O)[C@@H]2C[C@@H](O)CN2C(=O)[C@@H](NC(=O)C2CC2C(=O)NCc2cccc(-c3cccc(-c4csc(NC(=O)CNC(=O)c5ccn(S(C)(=O)=O)c5)n4)c3)c2)C(C)(C)C)cc1` (stereo partly drawn) [Compound 159, N1-[(2S)-1-[(2S,4R)-4-hydroxy-2-([[4-(4-methyl-1,3-thiazol-5-yl)phenyl]methyl]carbamoyl)pyrrolidin-1-yl]-3,3-dimethyl-1-oxobutan-2-yl]-N2-[[3-(2-[2-[(1-methanesulfonylpyrrol-3-yl)formamido]acetamido]-1,3-thiazol-4-yl)-[1,1-biphenyl]-3-yl]methyl]cyclopropane-1,2-dicarboxamide], on HiBit-BRM fusion protein, the DC50 was more than 10 µM and the “BRM HiBit Degradation Maximum measured” value is “C (‘C’ = Maximum degradation <50%)”. For the same molecule, in experiment [1], the DC50 is more than 10 µM and the Dmax was less than 50%.
